Results published in US9522928B2, “Mannosylated compounds useful for the prevention and the treatment of infectious diseases” (UNIVERSITE DE STRASBOURG, priority 2011, dated 2016).
Entries after “also recorded” stand apart in the source; their conditions may differ.

Tests used:
DCs = assay: Confocal microscopy of Alexa633-labeled TriManC24 in DCs; format: cell-based, human; details: Alexa Fluor 633 labeled compound, 100 μM, 10 min at 37° C.
Method: Human DCs (1×10^5 in 100 μl of RPMI medium) were exposed to Alexa633-labeled TriManC24 (100 μM final) for 10 min at 37° C. When indicated, transferrin-Alexa488 (Invitrogen) was also added for 10 min at 37° C. Cells were then washed and fixed with 4% paraformaldehyde for 15 min at room temperature. Nuclei were labeled with DAPI (1 μg/ml final) for 5 min. Slides were mounted using Prolong-Antifade (Molecular Probes). Samples were imaged with a confocal microscope (Zeiss LSM 700) and images analyzed with Adobe Photoshop.
To gain further insight into the interactions of TriManC24 with DC-SIGN expressed by DCs, a fluorescence-labeled TriManC24 was prepared by connecting Alexa Fluor 633 to hydroxyl groups of the mannose units. DCs were exposed to the labeled TriManC24 and visualized by confocal fluorescence microscopy.

HIV-1 (R5 strain) = assay: HIV-1 cis-infection and replication in DCs (p24Gag ELISA); format: cell-based; details: 10 and 100 μM, p24Gag in supernatant
Method: Human monocyte-derived dendritic cells (2×10^5; 300 μL) in RPMI 1640 medium containing 10% FBS were pre-treated with either anti-DC-SIGN antibodies (clone AZND1, Beckman-Coulter; 10 μg/mL) or compounds TriManC24 and TriManC24insat (10 and 100 μM) for 30 min at 37° C., before inoculation with HIV-1 (R5 strain; 100 ng of p24Gag). After 3 h, cells were pelleted and extensively washed to remove excess virus and compounds. On day 2, 4 and 7 after infection, cells were pelleted, an aliquot of the supernatant was removed and kept at −20° C., and half of the supernatant was replaced with fresh medium. Viral replication was monitored by measuring p24Gag levels in the culture supernatant by an enzyme-linked immunosorbent assay (ELISA, Innogenetics). […] As shown in the case of Dengue virus, the compounds of the invention may also interfere with HIV cis-infection. […] Discussion

HIV-1 R5 = HIV-1 R5 trans-infection of MAGI-CCR5 cells mediated by DCs; format: cell-based
Method: ManC1, […] (comparative) and compounds of the invention (ManC24, ManC17, TriManC24, TriDiManC24, TriManinsatC24 and ManinsatC24) were serially diluted in water. Human DCs (1×10^5 in 200 μl ) were pre-treated with different concentrations of compounds, or mannan (Sigma) or culture medium alone, in RPMI 1640 medium containing 10% FBS for 45 min at 37° C., prior infection with HIV-1 (100 ng of p24Gag) for 3 h. Excess free virus and molecules were removed by three washes. DCs were then cocultured with MAGI -CCR5 cells (1×10^5) at 37° C. plated in a 48-well plate. After two days, viral infection of MAGI-CCR5 cells was quantitated following beta-galactosidase assays and enumerating blue cells by light microscopy.
The IC50 were determined by serial dilution of each compound. The trans-infection assays were repeated a minimum of three times, and the IC50 determined using KaleidaGraph.
To investigate the ability of the compounds of the invention to inhibit HIV-1 trans infection, we chose to infect human DCs in order to best mimic in vivo conditions. Human DCs were exposed to different compounds (namely, Mannan (control), ManC1 (comparative), ManC11 (comparative), ManC17, ManC24, TriManC24, TriDiManC24, ManinsatC24 and TriManinsatC24) for 45 min at 37° C., before inoculation with HIV-1 (strains R5 and X4) for 3 hours. After extensive washings to remove unbound virions and mannosides, DCs were then co-cultured with MAGI-CCR5 cells. This procedure allows precise quantification of HIV-1 replication in reporter MAGI-CCR5 cells by detection of beta-galactosidase activity. These cells express an integrated copy of the HIV long terminal repeat (LTR) fused to the beta-galactosidase reporter gene, and express the CD4 receptor and the CCR5 and CXCR4 co-receptors, required for entry of HIV-1 R5 and X4 respectively. Upon viral entry leading to viral Tat expression and activation of the LTR, these cells permit quantification of HIV trans-infection after two days.

[1] = target: T1, DC-SIGN expressed at the surface of DCs (Homo sapiens, UniProt Q9NNX6); assay: Competition with gp120-FITC binding to DCs, flow cytometry; format: cell-based; details: 100 μM, 30 min pretreatment, competition not complete
T1 construct: endogenous in cells; host or cells: human monocyte-derived dendritic cells (GM-CSF/IL-4 differentiated)
T1 sequence (Q9NNX6 1-404): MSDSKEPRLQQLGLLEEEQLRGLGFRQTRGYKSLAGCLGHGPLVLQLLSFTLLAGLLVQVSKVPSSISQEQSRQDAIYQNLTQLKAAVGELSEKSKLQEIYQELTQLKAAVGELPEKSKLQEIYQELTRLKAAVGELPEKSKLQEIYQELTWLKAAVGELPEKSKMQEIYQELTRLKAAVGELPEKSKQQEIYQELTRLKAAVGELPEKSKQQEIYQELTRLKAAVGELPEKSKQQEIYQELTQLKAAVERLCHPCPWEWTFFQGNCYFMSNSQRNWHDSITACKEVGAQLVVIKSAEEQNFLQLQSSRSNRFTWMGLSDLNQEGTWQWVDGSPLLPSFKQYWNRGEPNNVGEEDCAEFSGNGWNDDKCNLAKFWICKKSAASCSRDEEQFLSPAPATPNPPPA
Method: Human DCs (1×10^5 in 100 μl) were aliquoted in a 96-well microtiter plate in RPMI 1640 medium without FBS. To assess the binding of HIV-1 glycoprotein 120, FITC conjugated recombinant gp120 HIV-1 IIIB (ImmunoDiagnostics Inc, Woburn, Mass. U.S.A.) was added to the cells (final concentration of 5 μg/ml) and incubated for 45 min at 37° C. For competition assays, cells were pretreated with either mannan (100 μg/ml final) or TriManC24 (100 μM) for 30 min at 37° C., followed by incubation with gp120-FITC for 45 min at 37° C. After washing with HBSS buffer (Lonza), expression of fluorescence intensity was analyzed on a FACSCalibur flow cytometer with the CellQuest Pro software
The ability of TriManC24 to inhibit the interactions of HIV-1 gp120 with DC-SIGN […] at the surface of DCs. Immature DCs were prepared by differentiation of human monocytes, in the presence of a cocktail of cytokines. The expression levels of DC-SIGN were controlled by flow cytometry. […] When cells were incubated with fluorescently-labeled gp120, a strong binding of gp120 to DCs was observed as compared with a lower interaction with monocytes (FIG. 1B).
A competition assays were performed by pre-incubating DCs with either TriManC24 or mannan, followed by the addition of gp120-FITC (FIG. 1C).

CCCCCCCCCCCCCCCCCCCCCCCCC(=O)NC(COCCC(=O)NCCOCCOCCOCCOC1OC(CO)C(O)C(O)C1O)(COCCC(=O)NCCOCCOCCOCCOC1OC(CO)C(O)C(O)C1O)COCCC(=O)NCCOCCOCCOCCOC1OC(CO)C(O)C(O)C1O (centres unmarked) [TriManC24]
cell binding and internalization (in words) (DCs): binds to the cell membrane and can be internalized by DCs via clathrin -mediated endocytosis
inhibition of HIV-1 cis-infection / replication in DCs (in words) (HIV-1 (R5 strain)): decreases the amount of HIV R5 replication; also recorded: inhibit
residual level of trans-infection (HIV-1 R5): 20%
inhibition of gp120 binding to DCs (in words) [1]: able to inhibit the binding of gp120-FITC to DCs
inhibition of gp120 binding to DCs (in words) ([1]; listed as TrimanC24): competed for the binding of soluble gp120 glycoprotein to DC-SIGN
